Source: EP4600243A2, “NOVEL BICYCLIC HETEROCYCLYL COMPOUNDS AND USE THEREOF” (Jeil Pharmaceutical Co., Ltd., priority 2022, dated 2024)
pIC50: −log10 of the molar value.

target: T1, protein-protein interaction between SOS1 and KRAS G12C (Homo sapiens, UniProt Q07889); test: KRAS::SOS1 HTRF binding analysis (KRAS G12C/SOS1 binding kit); conditions: compound at 0.1 uM
T1 construct: purchased Cisbio 64KRASG12PEG
T1 sequence (Q07889 1-1333): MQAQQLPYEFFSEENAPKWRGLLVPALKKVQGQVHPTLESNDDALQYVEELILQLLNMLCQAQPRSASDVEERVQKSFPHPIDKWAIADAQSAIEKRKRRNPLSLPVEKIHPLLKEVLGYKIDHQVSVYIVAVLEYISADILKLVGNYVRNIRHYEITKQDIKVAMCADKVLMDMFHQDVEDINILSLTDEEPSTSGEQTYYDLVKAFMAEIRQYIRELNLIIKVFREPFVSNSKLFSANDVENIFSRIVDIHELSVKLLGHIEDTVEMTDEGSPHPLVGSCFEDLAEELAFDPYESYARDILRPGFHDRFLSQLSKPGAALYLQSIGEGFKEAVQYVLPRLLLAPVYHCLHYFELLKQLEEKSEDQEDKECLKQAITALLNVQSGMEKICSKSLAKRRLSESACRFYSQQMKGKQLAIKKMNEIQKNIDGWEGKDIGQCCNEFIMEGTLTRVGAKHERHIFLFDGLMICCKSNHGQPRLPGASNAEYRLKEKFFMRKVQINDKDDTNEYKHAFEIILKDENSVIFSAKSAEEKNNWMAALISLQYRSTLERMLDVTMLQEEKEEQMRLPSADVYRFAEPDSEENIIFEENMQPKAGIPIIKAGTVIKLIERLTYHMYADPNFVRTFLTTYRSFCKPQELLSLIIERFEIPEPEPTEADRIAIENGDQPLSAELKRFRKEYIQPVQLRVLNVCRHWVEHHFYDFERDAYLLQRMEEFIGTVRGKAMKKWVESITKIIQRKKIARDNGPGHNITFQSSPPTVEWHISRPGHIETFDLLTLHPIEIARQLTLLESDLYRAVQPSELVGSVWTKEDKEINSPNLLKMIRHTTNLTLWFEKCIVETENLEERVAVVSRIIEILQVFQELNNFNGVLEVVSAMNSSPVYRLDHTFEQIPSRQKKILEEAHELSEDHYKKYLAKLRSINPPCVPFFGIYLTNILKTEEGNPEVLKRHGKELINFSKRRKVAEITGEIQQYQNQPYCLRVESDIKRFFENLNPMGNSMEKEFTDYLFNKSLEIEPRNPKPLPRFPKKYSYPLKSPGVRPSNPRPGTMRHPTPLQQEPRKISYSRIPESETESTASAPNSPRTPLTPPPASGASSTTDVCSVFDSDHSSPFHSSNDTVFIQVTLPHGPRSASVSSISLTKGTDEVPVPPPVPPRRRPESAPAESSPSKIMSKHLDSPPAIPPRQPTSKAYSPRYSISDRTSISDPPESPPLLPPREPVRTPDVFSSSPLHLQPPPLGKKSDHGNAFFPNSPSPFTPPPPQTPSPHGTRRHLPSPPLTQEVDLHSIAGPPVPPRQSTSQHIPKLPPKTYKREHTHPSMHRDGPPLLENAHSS
Description: 1-1. KRAS::SOS1 HTRF binding analysis
An SOS1 inhibitory ability of the example compounds of the present invention was confirmed by identifying the effect of inhibiting a protein-protein interaction between SOS1 and KRAS G12C of the compounds according to examples of the present invention.
Specifically, a KRAS G12C/SOS1 binding kit (64KRASG12PEG, Cisbio, France) was purchased and used. 2 µℓ of Tag1-KRAS G12C and 2 µℓ of GTP were premixed and dispensed 4 µl each into a 384 well plate (6007290, PerkinElmer, USA). 2 µℓ of the compound and 4 µℓ of Tag2-SOS1 were placed and then 10 µℓ of premixed Anti-Tag1 XL665 antibody and Anti-Tag2 Tb cryptate antibody was dispensed to each well. The plates were sealed and allowed to react at room temperature for one hour and 40 minutes, and then 665 nm wavelength and 620 nm wavelength were measured using a HTRF® compatible reader (Synergy H4, BioTeK, USA), and the ratio of receptor and donor emission signals for each well was calculated as 665 nm/620 nm×10^4.
(+++: more than 70 to 100% inhibition, ++: more than 40 to 70% inhibition, +: 0 to 40% inhibition) [Table 4]

| Compound | inhibition at 0.1 µM [%] |
| --- | --- |
| C[C@@H](Nc1cnnc2ccc(C3=CCNCC3)cc12)c1cccc(C(F)F)c1F [Example 2, (R)-N-(1-(3-(difluoromethyl)-2-fluorophenyl)ethyl)-6-(1,2,3,6-tetrahydropyridin-4-yl)cinnolin-4-amine] | 40 to 70 |
| C[C@@H](Nc1cnnc2ccc(N3CCN(C)CC3)cc12)c1cccc(C(F)F)c1F [Example 5, (R)-N-(1-(3-(difluoromethyl)-2-fluorophenyl)ethyl)-6-(4-methylpiperazin-1-yl)cinnolin-4-amine] | 40 to 70 |
| C[C@@H](Nc1cnnc2ccc(N3CC4CC(C3)O4)cc12)c1cc(O)cc(C(F)F)c1 [Example 55, 3-((1R)-1-((6-(6-oxa-3-azabicyclo[3.1.1]heptan-3-yl)cinnolin-4-yl)amino)ethyl)-5-(difluoromethyl)phenol] | 0 to 40 |
| C[C@@H](Nc1cnnc2ccc(N3CC4CC(C3)O4)cc12)c1cccc(F)c1F [Example 56, 6-(6-oxa-3-azabicyclo[3.1.1]heptan-3-yl)-N-((R)-1-(2,3-difluorophenyl)ethyl)cinnolin-4-amine] | 0 to 40 |
| C[C@@H]1CN(c2ccc3nncc(N[C@H](C)c4cccc(C(F)F)c4F)c3c2)CCO1 [Example 57, N-((R)-1-(3-(difluoromethyl)-2-fluorophenyl)ethyl)-6-((R)-2-methylmorpholino)cinnolin-4-amine] | 0 to 40 |
| C[C@H]1CN(c2ccc3nncc(N[C@H](C)c4cccc(C(F)F)c4F)c3c2)CCO1 [Example 59, N-((R)-1-(3-(difluoromethyl)-2-fluorophenyl)ethyl)-6-((S)-2-methylmorpholino)cinnolin-4-amine] | 0 to 40 |
| C[C@@H](Nc1cnnc2ccc(C3=CCN(C(=O)C4COC4)CC3)cc12)c1cccc(C(F)F)c1F [Example 60, (R)-(4-(4-(1-(3-(difluoromethyl)-2-fluorophenyl)ethylamino)cinnolin-6-yl)-5,6-dihydropyridin-1(2H)-yl)(oxetan-3-yl)methanone] | 70 to 100 |
| C[C@@H](Nc1cnnc2ccc(C3=CCN(C(=O)C4CC4)CC3)cc12)c1cccc(C(F)F)c1F [Example 61, (R)-cyclopropyl(4-(4-(1-(3-(difluoromethyl)-2-fluorophenyl)ethylamino)cinnolin-6-yl)-5,6-dihydropyridin-1(2H)-yl)methanone] | 0 to 40 |
| C[C@@H](Nc1cnnc2ccc(N3CCN(C(=O)C4CC4)CC3)cc12)c1cccc(C(F)F)c1F [Example 62, (R)-cyclopropyl(4-(4-(1-(3-(difluoromethyl)-2-fluorophenyl)ethylamino)cinnolin-6-yl)piperazin-1-yl)methanone] | 40 to 70 |
| C[C@@H](Nc1cnnc2ccc(N3CCN(C(=O)C4CCOCC4)CC3)cc12)c1cccc(C(F)F)c1F [Example 63, (R)-(4-(4-(1-(3-(difluoromethyl)-2-fluorophenyl)ethylamino)cinnolin-6-yl)piperazin-1-yl)(tetrahydro-2H-pyran-4-yl)methanone] | 40 to 70 |
| C[C@@H](Nc1cnnc2ccc(N3CCN(C(=O)[C@@H]4CCOC4)CC3)cc12)c1cccc(C(F)F)c1F [Example 64, (4-(4-((R)-1-(3-(difluoromethyl)-2-fluorophenyl)ethylamino)cinnolin-6-yl)piperazin-1-yl)((R)-tetrahydrofuran-3-yl)methanone] | 70 to 100 |
| C[C@@H](Nc1cnnc2ccc(N3CCN(C(=O)[C@H]4CCOC4)CC3)cc12)c1cccc(C(F)F)c1F [Example 65, (4-(4-((R)-1-(3-(difluoromethyl)-2-fluorophenyl)ethylamino)cinnolin-6-yl)piperazin-1-yl)((S)-tetrahydrofuran-3-yl)methanone] | 40 to 70 |
| C[C@@H](Nc1cnnc2ccc(N3CCC(NC(=O)C4COC4)CC3)cc12)c1cccc(C(F)F)c1F [Example 69, (R)-N-(1-(4-(1-(3-(difluoromethyl)-2-fluorophenyl)ethylamino)cinnolin-6-yl)piperidin-4-yl)oxetan-3-carboxamide] | 40 to 70 |

target: T2, EGFR kinase (Homo sapiens, UniProt P00533); test: EGFR kinase inhibitory analysis (ADP-Glo enzyme analysis system); assay type: biochemical; conditions: ADP-Glo luminescence
T2 construct: purchased Promega Corporation V3831
T2 sequence (P00533 25-1210): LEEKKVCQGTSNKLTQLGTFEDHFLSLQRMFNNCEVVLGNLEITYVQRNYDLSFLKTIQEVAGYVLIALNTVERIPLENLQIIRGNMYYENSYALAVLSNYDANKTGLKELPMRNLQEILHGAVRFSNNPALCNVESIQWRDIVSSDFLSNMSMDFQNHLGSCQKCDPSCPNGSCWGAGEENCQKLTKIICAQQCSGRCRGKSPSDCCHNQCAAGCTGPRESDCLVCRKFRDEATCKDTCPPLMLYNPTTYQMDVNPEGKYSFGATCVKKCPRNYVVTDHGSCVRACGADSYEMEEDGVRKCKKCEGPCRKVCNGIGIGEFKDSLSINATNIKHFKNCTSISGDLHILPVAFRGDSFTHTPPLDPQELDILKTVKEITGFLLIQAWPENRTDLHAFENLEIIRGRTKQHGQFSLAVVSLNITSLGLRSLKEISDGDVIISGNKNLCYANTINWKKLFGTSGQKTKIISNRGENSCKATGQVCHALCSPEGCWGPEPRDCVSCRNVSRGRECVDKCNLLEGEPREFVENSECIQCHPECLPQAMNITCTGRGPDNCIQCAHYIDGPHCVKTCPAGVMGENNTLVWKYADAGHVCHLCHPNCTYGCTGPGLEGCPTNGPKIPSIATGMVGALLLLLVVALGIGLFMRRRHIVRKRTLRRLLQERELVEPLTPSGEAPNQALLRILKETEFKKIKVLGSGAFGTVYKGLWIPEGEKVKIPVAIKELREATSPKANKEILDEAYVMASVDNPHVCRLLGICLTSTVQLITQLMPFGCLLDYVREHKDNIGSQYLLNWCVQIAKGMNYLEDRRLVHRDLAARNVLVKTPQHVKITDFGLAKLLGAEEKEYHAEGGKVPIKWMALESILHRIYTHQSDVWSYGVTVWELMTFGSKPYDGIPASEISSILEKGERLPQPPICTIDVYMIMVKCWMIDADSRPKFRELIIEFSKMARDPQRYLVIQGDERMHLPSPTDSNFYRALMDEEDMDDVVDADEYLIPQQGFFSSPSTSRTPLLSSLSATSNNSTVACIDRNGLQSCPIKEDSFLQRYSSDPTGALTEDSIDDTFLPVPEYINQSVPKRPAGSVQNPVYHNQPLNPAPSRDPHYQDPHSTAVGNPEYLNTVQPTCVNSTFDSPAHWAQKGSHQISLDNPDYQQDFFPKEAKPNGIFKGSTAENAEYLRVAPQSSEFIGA
Description: 1-2. EGFR kinase inhibitory analysis
Specifically, an ADP-Glo™ enzyme analysis system (V3831, Promega Corporation, USA) was purchased and used. […] The ADP-Glo™ reagent was added in an amount of 5 µℓ per well and allowed to react at room temperature for 40 minutes to stop the EGFR kinase reaction and to remove unused ATP. 10 µℓ of kinase detection reagent (phosphorylase detection reagent) was added and reacted at room temperature for 30 minutes to convert ADP to ATP and show ATP using luciferase and luciferin. Detection was performed using luminescence of an ELISA reader (Synergy H4, BioTek, USA).

| Compound | pIC50 |
| --- | --- |
| C[C@@H](Nc1cnnc2ccc(C3=CCNCC3)cc12)c1cccc(C(F)F)c1F [Example 2, (R)-N-(1-(3-(difluoromethyl)-2-fluorophenyl)ethyl)-6-(1,2,3,6-tetrahydropyridin-4-yl)cinnolin-4-amine] | < 5.00 |
| C[C@@H](Nc1cnnc2ccc(N3CCN(C)CC3)cc12)c1cccc(C(F)F)c1F [Example 5, (R)-N-(1-(3-(difluoromethyl)-2-fluorophenyl)ethyl)-6-(4-methylpiperazin-1-yl)cinnolin-4-amine] | < 5.00 |
